Data from PMC11455950, “Effects of SZV-2649, a new multiple ion channel inhibitor mexiletine analogue” (Scientific Reports, 2024).

Target: T1, GIRK1 (Kir3.1/3.4) potassium channel (Homo sapiens, UniProt P48544+P48549)
T1 construct: host or cells: HEK293
T1 sequence (P48549 1-501): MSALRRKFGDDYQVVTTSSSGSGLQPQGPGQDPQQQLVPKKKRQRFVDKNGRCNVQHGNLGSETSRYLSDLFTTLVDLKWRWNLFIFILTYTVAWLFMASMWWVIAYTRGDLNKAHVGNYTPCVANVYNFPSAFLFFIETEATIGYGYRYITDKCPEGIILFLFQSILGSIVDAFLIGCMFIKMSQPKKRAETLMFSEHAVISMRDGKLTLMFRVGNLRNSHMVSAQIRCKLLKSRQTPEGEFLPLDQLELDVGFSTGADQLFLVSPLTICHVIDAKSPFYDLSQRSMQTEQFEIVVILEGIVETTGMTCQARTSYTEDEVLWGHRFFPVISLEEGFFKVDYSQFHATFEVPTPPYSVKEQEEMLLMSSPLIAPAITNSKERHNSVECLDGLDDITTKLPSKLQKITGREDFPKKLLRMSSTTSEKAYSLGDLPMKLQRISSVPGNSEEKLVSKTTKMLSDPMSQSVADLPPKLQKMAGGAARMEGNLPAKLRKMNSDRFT
T1 sequence (P48544 1-419): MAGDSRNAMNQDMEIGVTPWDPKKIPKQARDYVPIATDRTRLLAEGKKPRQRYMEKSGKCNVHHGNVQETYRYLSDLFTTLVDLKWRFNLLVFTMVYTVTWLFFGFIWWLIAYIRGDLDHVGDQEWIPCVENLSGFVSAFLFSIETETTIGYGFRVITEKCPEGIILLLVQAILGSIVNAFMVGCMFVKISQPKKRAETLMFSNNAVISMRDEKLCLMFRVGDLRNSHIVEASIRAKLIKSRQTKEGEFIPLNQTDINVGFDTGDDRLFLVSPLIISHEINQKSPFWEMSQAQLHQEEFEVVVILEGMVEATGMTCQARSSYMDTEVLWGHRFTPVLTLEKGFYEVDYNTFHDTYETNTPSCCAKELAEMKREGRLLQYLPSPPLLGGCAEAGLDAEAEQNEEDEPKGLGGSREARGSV
Experiment: Automated planar patch-clamp, GIRK current in HEK cells
Assay type: cell-based
Conditions: HEK cells (abstract)
Text: Inhibition of the hERG channel, the pore forming α-subunit of the native IKr cardiac potassium channel, is expected to prolong repolarization both in the atria and in the ventricles. The GIRK channel is the pore forming α-subunit of the acetylcholine-activated potassium channel and plays an important role in atrial electrophysiology. Its inhibition can be expected to decrease the acetylcholine-activated potassium current (IKACh), a current that plays an important role in the pathogenesis of AF. Therefore, the effects of SZV-2649 on the hERG and GIRK ion channels were studied by the planar patch-clamp technique in mammalian HEK cell lines stably expressing these channels.
The currents conducted by the hERG and GIRK channels were measured by using planar patch-clamp technology[,[47],[68] in the whole-cell configuration with a four-channel medium-throughput fully automated patch-clamp platform (Patchliner Quattro, Nanion Technologies GmbH, Munich, Germany) with integrated temperature control. […]
For GIRK current measurements (see Fig. 2.), the internal solution was (in mM): K-gluconate 40, NaCl 20, KF 60, EGTA 20 and HEPES 10 (pH 7.2, KOH) supplemented with 0.9 mM GTP before experiments to induce channel activation. […] The invard currents were calculated from the − 140 mV segment. […]

SMILES: CC(N)COc1c(I)cc(C#N)cc1I.Cl (stereo not shown) [SZV-2649, 4-(2-aminopropoxy)-3,5-diiodobenzonitrile hydrochloride]
- IC50: 0.529 µM
